Laboratory results published in patent publication US20200361871A1 (Enterprise Therapeutics Ltd., priority 2018, published 2020).
pEC50: −log10 of the molar value.

Biological target: human TMEM16A (TMEM16Aabc variant) (Homo sapiens, UniProt Q5XXA6, DEL476-501, form not given)
Test: Automated whole-cell patch clamp (Qpatch) TMEM16A potentiator assay in FRT cells stably expressing human TMEM16A
Format: cell-based
Settings: for % Potentiation @ 3.33 μM Avg: 3.33 μM solution of test compound, percentage increase of baseline TMEM16A current; for pEC50: calculated EC50, Qpatch TMEM16A current at +70 mV
Method in brief: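 FRT cells stably expressing human TMEM16Aabc were recorded by automated whole-cell patch clamp, with intracellular Ca2+ buffered for ~EC20 activation, holding −70 mV and step to +70 mV at 0.05 Hz. Compound was applied cumulatively, 5 min per concentration. Peak current increase as % of baseline was fitted to give EC50 and maximum efficacy.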

Chain of human TMEM16A (TMEM16Aabc variant) (Q5XXA6 with tags, fused parts or gaps DEL476-501): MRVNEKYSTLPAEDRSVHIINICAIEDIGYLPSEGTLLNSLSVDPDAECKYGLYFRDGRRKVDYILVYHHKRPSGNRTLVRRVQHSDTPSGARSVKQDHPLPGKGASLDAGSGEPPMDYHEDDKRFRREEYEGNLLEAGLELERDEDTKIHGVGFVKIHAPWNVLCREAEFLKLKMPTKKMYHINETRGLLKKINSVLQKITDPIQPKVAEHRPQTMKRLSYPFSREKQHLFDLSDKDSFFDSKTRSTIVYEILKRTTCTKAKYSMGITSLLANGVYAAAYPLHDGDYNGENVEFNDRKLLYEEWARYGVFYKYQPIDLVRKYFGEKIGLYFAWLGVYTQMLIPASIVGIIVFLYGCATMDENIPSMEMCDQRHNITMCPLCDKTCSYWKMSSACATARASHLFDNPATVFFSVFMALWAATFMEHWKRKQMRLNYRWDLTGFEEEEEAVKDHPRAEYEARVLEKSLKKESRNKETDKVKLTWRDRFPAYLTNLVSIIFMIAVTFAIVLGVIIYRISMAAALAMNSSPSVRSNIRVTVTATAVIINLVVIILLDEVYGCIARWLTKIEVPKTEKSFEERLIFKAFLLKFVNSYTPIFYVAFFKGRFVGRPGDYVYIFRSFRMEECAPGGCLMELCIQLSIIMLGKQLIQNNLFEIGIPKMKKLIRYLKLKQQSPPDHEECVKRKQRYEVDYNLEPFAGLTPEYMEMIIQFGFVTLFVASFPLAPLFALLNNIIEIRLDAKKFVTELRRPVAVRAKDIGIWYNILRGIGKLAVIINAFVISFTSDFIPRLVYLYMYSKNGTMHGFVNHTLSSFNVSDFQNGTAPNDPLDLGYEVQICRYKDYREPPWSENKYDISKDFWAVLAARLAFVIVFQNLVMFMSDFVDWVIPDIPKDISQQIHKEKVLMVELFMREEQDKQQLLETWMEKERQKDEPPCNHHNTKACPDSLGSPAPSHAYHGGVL

SMILES	% Potentiation @ 3.33 μM Avg [%]	pEC50
CC(C)(C)NC(=O)c1cc(NC(=O)CC2C3CC4CC(C3)CC2C4)ccn1 (centres unmarked) [Example 5.1, 4-[[2-(2-Adamantyl)acetyl]amino]-N-tert-butyl-pyridine-2-carboxamide]	140	6.06
COc1cc(F)ccc1CC(=O)Nc1ccnc(C(=O)NC(C)(C)C)c1 [Example 5.2, N-tert-Butyl-4-[[2-(4-fluoro-2-methoxy-phenyl)acetyl]amino]pyridine-2-carboxamide]	63	–
CC(C)(C)NC(=O)c1cc(NC(=O)Cc2cc(Cl)ccc2F)ccn1 [Example 5.3, N-tert-Butyl-4-[[2-(5-chloro-2-fluoro-phenyl)acetyl]amino]pyridine-2-carboxamide]	152	6.06
CC(C)(C)NC(=O)c1cc(NC(=O)Cc2ccco2)ccn1 [Example 5.4, N-tert-Butyl-4-[[2-(2-furyl)acetyl]amino] pyridine-2-carboxamide]	57	–
CC(C)(C)NC(=O)c1cc(NC(=O)Cc2cccc(Cl)c2)ccn1 [Example 5.5, N-tert-Butyl-4-[[2-(3-chlorophenyl)acetyl]amino]pyridine-2-carboxamide]	132	6.14
CC(C)(C)NC(=O)c1cc(NC(=O)Cc2c[nH]c3ccccc23)ccn1 [Example 5.6, N-tert-Butyl-4-[[2-(1H-indol-3-yl)acetyl]amino]pyridine-2-carboxamide]	101	6.82
Cc1ccccc1CC(=O)Nc1ccnc(C(=O)NC(C)(C)C)c1 [Example 5.7, N-tert-Butyl-4-[[2-(o-tolyl)acetyl]amino]pyridine-2-carboxamide]	131	5.91
CC(C)(C)NC(=O)c1cc(NC(=O)Cc2ccc(Cl)c(Cl)c2)ccn1 [Example 5.8, N-tert-Butyl-4-[[2-(3,4-dichlorophenyl)acetyl]amino]pyridine-2-carboxamide]	116	6.34
CC(C)(C)NC(=O)c1cc(NC(=O)Cc2cccc(F)c2)ccn1 [Example 5.9, N-tert-Butyl-4-[[2-(3-fluorophenyl)acetyl]amino]pyridine-2-carboxamide]	126	5.95
COc1ccc(Cl)cc1CC(=O)Nc1ccnc(C(=O)NC(C)(C)C)c1 [Example 5.10, N-tert-Butyl-4-[[2-(5-chloro-2-methoxy-phenyl)acetyl]amino]pyridine-2-carboxamide]	78	5.42
Cc1ccc(CC(=O)Nc2ccnc(C(=O)NC(C)(C)C)c2)cc1 [Example 5.11, N-tert-Butyl-4-[[2-(p-tolyl)acetyl]amino]pyridine-2-carboxamide]	89	6.77
CC(C)(C)NC(=O)c1cc(NC(=O)Cc2ccccc2F)ccn1 [Example 5.12, N-tert-Butyl-4-[[2-(2-fluorophenyl)acetyl]amino]pyridine-2-carboxamide]	100	6.12
CC(C)(C)NC(=O)c1cc(NC(=O)Cc2ccc(F)cc2)ccn1 [Example 5.13, N-tert-Butyl-4-[[2-(4-fluorophenyl)acetyl]amino]pyridine-2-carboxamide]	94	5.94
Cc1cccc(CC(=O)Nc2ccnc(C(=O)NC(C)(C)C)c2)c1 [Example 5.14, N-tert-Butyl-4-[[2-(m-tolyl)acetyl]amino]pyridine-2-carboxamide]	128	6.12
CC(C)(C)NC(=O)c1cc(NC(=O)Cc2ccc3ncoc3c2)ccn1 [Example 5.15, 4-[[2-(1,3-Benzoxazol-6-yl)acetyl]amino]-N-tert-butyl-pyridine-2-carboxamide]	87	–
CC(C)(C)NC(=O)c1cc(NC(=O)Cc2cccnc2Cl)ccn1 [Example 5.16, N-tert-Butyl-4-[[2-(2-chloro-3-pyridyl)acetyl]amino]pyridine-2-carboxamide]	110	–
CC(C)(C)NC(=O)c1cc(NC(=O)Cc2c(Cl)cccc2Cl)ccn1 [Example 5.17, N-tert-Butyl-4-[[2-(2,6-dichlorophenyl)acetyl]amino]pyridine-2-carboxamide]	94	6.19
CC(C)(C)NC(=O)c1cc(NC(=O)Cc2ccc(Cl)c(F)c2)ccn1 [Example 5.18, N-tert-Butyl-4-[[2-(4-chloro-3-fluoro-phenyl)acetyl]amino]pyridine-2-carboxamide]	79	6.34
CC(C)(C)NC(=O)c1cc(NC(=O)Cc2cc(Cl)cc(Cl)c2)ccn1 [Example 5.19, N-tert-Butyl-4-[[2-(3,5-dichlorophenyl)acetyl]amino]pyridine-2-carboxamide]	75	5.73
CC(C)(C)NC(=O)c1cc(NC(=O)Cc2ccccc2Cl)ccn1 [Example 5.20, N-tert-Butyl-4-[[2-(2-chlorophenyl)acetyl]amino]pyridine-2-carboxamide]	221	6.24
CC(C)(C)NC(=O)c1cc(NC(=O)Cc2ccc(O)c(Cl)c2)ccn1 [Example 5.21, N-tert-Butyl-4-[[2-(3-chloro-4-hydroxy-phenyl)acetyl]amino]pyridine-2-carboxamide]	172	6.29
CC(C)(C)NC(=O)c1cc(NC(=O)C2CCc3ccccc32)ccn1 (centres unmarked) [Example 5.22, N-tert-Butyl-4-(indane-1-carbonylamino)pyridine-2-carboxamide]	94	–
CC(C)(C)NC(=O)c1cc(NC(=O)Cc2ccc3nccnc3c2)ccn1 [Example 5.23, N-tert-Butyl-4-[(2-quinoxalin-6-ylacetyl)amino]pyridine-2-carboxamide]	144	5.92
CC(C)(C)NC(=O)c1cc(NC(=O)Cc2ccc3ccccc3c2)ccn1 [Example 5.24, N-tert-Butyl-4-[[2-(2-naphthyl)acetyl]amino]pyridine-2-carboxamide]	189	6.85
CC(C)(C)NC(=O)c1cc(NC(=O)C2COc3ccccc32)ccn1 (centres unmarked) [Example 5.25, N-tert-Butyl-4-(2,3-dihydrobenzofuran-3-carbonylamino)pyridine-2-carboxamide]	67	–
CC(C)(C)NC(=O)c1cc(NC(=O)C2CCCCc3ccccc32)ccn1 (centres unmarked) [Example 5.26, N-tert-Butyl-4-(6,7,8,9-tetrahydro-5H-benzo[7]annulene-5-carbonylamino) pyridine-2-carboxamide]	110	5.92
CC(C)(C)NC(=O)c1cc(NC(=O)C2CCCc3ccccc32)ccn1 (centres unmarked) [Example 5.27, N-tert-Butyl-4-(tetralin-1-carbonylamino) pyridine-2-carboxamide]	84	–
CC(C)(C)NC(=O)c1cc(NC(=O)Cc2ccc3ncccc3c2)ccn1 [Example 5.29, N-tert-Butyl-4-[[2-(6-quinolyl)acetyl]amino]pyridine-2-carboxamide]	190	6.07
CC(C)(C)NC(=O)c1cc(NC(=O)Cc2ccc3c(c2)OCCO3)ccn1 [Example 5.31]	145	–
